Results from ChEMBL document CHEMBL1146472, “Cytotoxic cyclotides from Viola tricolor” (J Nat Prod, 2004).
Where a SMILES comes first, the peptide text is derived from it. Bridges are numbered along the chain shown (N, C = ends).

Experiments:
U-937/GTB = experiment: Cytotoxicity against human U937/GTB cells after 72 hrs by trypan blue exclusion method; format: functional, cell-based
RPMI-8226 = experiment: Cytotoxicity against human RPMI8226/S cells after 72 hrs by trypan blue exclusion method; format: functional, cell-based

**Q.** For `COc1cccc2c1C(=O)c1c(O)c3c(c(O)c1C2=O)C[C@@](O)(C(=O)CO)C[C@@H]3O[C@H]1C[C@H](N)[C@H](O)[C@H](C)O1` [DOXORUBICIN], which IC50 (U-937/GTB; Homo sapiens, U-937/GTB, 72 h) is on record?
**A.** 100 nM

**Q.** What about the IC50 (RPMI-8226; Homo sapiens, RPMI8226/S, 72 h) of the same molecule?
**A.** 100 nM

**Q.** `CC[C@H](C)[C@@H]1NC(=O)[C@@H]2CCCN2C(=O)[C@H](CC(C)C)NC(=O)CNC(=O)[C@H](CC(N)=O)NC(=O)[C@H](CCCNC(=N)N)NC(=O)[C@H]([C@@H](C)O)NC(=O)[C@@H]2CSSC[C@@H]3NC(=O)[C@H]([C@@H](C)O)NC(=O)CNC(=O)CNC(=O)[C@H](C(C)C)NC(=O)[C@@H](NC(=O)[C@@H](NC(=O)[C@H](CCC(=O)O)NC(=O)CN)[C@@H](C)O)CSSC[C@H](NC(=O)[C@H](CO)NC(=O)[C@H](CSSC[C@@H](C(=O)O)NC1=O)NC(=O)CNC(=O)[C@@H]1CCCN1C(=O)[C@H]([C@@H](C)O)NC(=O)[C@H](CC(N)=O)NC3=O)C(=O)N[C@@H](CO)C(=O)N[C@@H](Cc1c[nH]c3ccccc13)C(=O)N1CCC[C@H]1C(=O)N[C@@H](C(C)C)C(=O)N2` (stereo in doubt; form 2) was tested. Which IC50 (U-937/GTB; u-937/gtb) did it give?
**A.** 7000 nM

**Q.** And the IC50 (RPMI-8226; rpmi8226/s)?
**A.** 6000 nM

**Q.** Which IC50 (U-937/GTB; Homo sapiens, U-937/GTB, 72 h) does the source give for `CC[C@H](C)[C@@H]1NC(=O)[C@H](C)NC(=O)[C@H](CO)NC(=O)[C@H]([C@@H](C)O)NC(=O)[C@H]([C@@H](C)CC)NC(=O)[C@@H]2CSSC[C@@H]3NC(=O)[C@H](C(C)C)NC(=O)[C@H](CCCCN)NC(=O)[C@H](CO)NC(=O)[C@H](CCCCN)NC(=O)[C@H](CSSC[C@H](NC(=O)[C@H](CO)NC(=O)[C@H](CCC(=O)O)NC(=O)CN)C(=O)N[C@@H](C(C)C)C(=O)N[C@@H](Cc4c[nH]c5ccccc45)C(=O)N[C@@H]([C@@H](C)CC)C(=O)N4CCC[C@H]4C(=O)N2)NC(=O)[C@H](CO)NC(=O)[C@H](CSSC[C@@H](C(=O)O)NC(=O)[C@@H]2CCCN2C(=O)[C@H]([C@@H](C)CC)NC(=O)CNC(=O)[C@H](CC(N)=O)NC(=O)[C@H](CCCNC(=N)N)NC(=O)[C@H](Cc2ccc(O)cc2)NC3=O)NC(=O)CNC1=O` [VITRI A] (H-GESCVWIPCITSAIGCSCKSKVCYRNGIPC-OH; disulfide 4-18, 9-23, 16-30) here?
**A.** 600 nM

**Q.** What about the IC50 (RPMI-8226; Homo sapiens, RPMI8226/S, 72 h) of the same molecule?
**A.** 1000 nM

**Q.** How did the IC50 (U-937/GTB; Homo sapiens, U-937/GTB, 72 h) turn out when `CC(C)C[C@@H]1NC(=O)CNC(=O)[C@H](CC(N)=O)NC(=O)[C@H](CCCNC(=N)N)NC(=O)[C@H]([C@@H](C)O)NC(=O)[C@@H]2CSSC[C@@H]3NC(=O)[C@H]([C@@H](C)O)NC(=O)CNC(=O)CNC(=O)[C@H](C(C)C)NC(=O)[C@@H](NC(=O)[C@@H](NC(=O)[C@H](CCC(=O)O)NC(=O)CN)[C@@H](C)O)CSSC[C@H](NC(=O)[C@H](CO)NC(=O)[C@H](CSSC[C@@H](C(=O)O)NC(=O)[C@H](C(C)C)NC(=O)[C@@H]4CCCN4C1=O)NC(=O)CNC(=O)[C@@H]1CCCN1C(=O)[C@H]([C@@H](C)O)NC(=O)[C@H](CC(N)=O)NC3=O)C(=O)N[C@@H](CO)C(=O)N[C@@H](Cc1c[nH]c3ccccc13)C(=O)N1CCC[C@H]1C(=O)N[C@@H](C(C)C)C(=O)N2` was run?
**A.** 6000 nM

**Q.** And the IC50 (RPMI-8226; Homo sapiens, RPMI8226/S, 72 h)?
**A.** 3000 nM

**Q.** Which results are given for `CC[C@H](C)[C@@H]1NC(=O)[C@H](C)NC(=O)[C@H](CO)NC(=O)[C@H](CO)NC(=O)[C@H]([C@@H](C)CC)NC(=O)[C@@H]2CSSC[C@@H]3NC(=O)[C@H](C(C)C)NC(=O)[C@H](CCCCN)NC(=O)[C@H](CO)NC(=O)[C@H](CCCCN)NC(=O)[C@H](CSSC[C@H](NC(=O)[C@H](CO)NC(=O)[C@H](CCC(=O)O)NC(=O)CN)C(=O)N[C@@H](C(C)C)C(=O)N[C@@H](Cc4c[nH]c5ccccc45)C(=O)N[C@@H]([C@@H](C)CC)C(=O)N4CCC[C@H]4C(=O)N2)NC(=O)[C@H](CO)NC(=O)[C@H](CSSC[C@@H](C(=O)O)NC(=O)[C@@H]2CCCN2C(=O)[C@H]([C@@H](C)CC)NC(=O)CNC(=O)[C@H](CC(N)=O)NC(=O)[C@H](CCCNC(=N)N)NC(=O)[C@H](Cc2ccc(O)cc2)NC3=O)NC(=O)CNC1=O` [CYCLOVIOLACIN O2] (H-GESCVWIPCISSAIGCSCKSKVCYRNGIPC-OH; disulfide 4-18, 9-23, 16-30)?
**A.** IC50 (U-937/GTB; Homo sapiens, U-937/GTB, 72 h): 300 nM; IC50 (RPMI-8226; Homo sapiens, RPMI8226/S, 72 h): 100 nM

**Q.** Which results are given for `CC[C@H](C)[C@@H]1NC(=O)[C@@H]2CCCN2C(=O)[C@H](CC(C)C)NC(=O)CNC(=O)[C@H](CC(N)=O)NC(=O)[C@H](CCCNC(=N)N)NC(=O)[C@H]([C@@H](C)O)NC(=O)[C@@H]2CSSC[C@@H]3NC(=O)[C@H]([C@@H](C)O)NC(=O)CNC(=O)CNC(=O)[C@H](C(C)C)NC(=O)[C@@H](NC(=O)[C@@H](NC(=O)[C@H](CCC(=O)O)NC(=O)CN)[C@@H](C)O)CSSC[C@H](NC(=O)[C@H](CO)NC(=O)[C@H](CSSC[C@@H](C(=O)O)NC1=O)NC(=O)CNC(=O)[C@@H]1CCCN1C(=O)[C@H]([C@@H](C)O)NC(=O)[C@H](CC(N)=O)NC3=O)C(=O)N[C@@H](CO)C(=O)N[C@@H](Cc1c[nH]c3ccccc13)C(=O)N1CCC[C@H]1C(=O)N[C@@H](C(C)C)C(=O)N2` (stereo in doubt; form 1)?
**A.** IC50 (U-937/GTB; Homo sapiens, U-937/GTB, 72 h): 4000 nM; IC50 (RPMI-8226; Homo sapiens, RPMI8226/S, 72 h): 4000 nM
